Experiments:
human = assay: maximum tolerated dose for human calculated from animal doses; assay type: in vivo; details: calculated on the basis of a body weight of 60 kg from maximum tolerated dose of intramuscular and intravenous injection for animals
[1] = solubility test (excess compound shaken to equilibrium, UV at 319 nm); assay type: physicochemical; details: 25±1°C, 72 h
Protocol: A series of solutions of gastrodin or hydroxypropyl-β-cyclodextrin or a mixture of gastrodin and hydroxypropyl-β-cyclodextrin were prepared in volumetric flasks according to the concentrations specified in the tables below. Excessive piceatannol-3'-o-β-d-glucopyranoside was added to the solutions prepared above, which were then shaken at 25±1°C in a thermostatic water bath continuously for 72 h until equilibrium was reached. The solutions were precisely taken out and filtered through a 0.45µm filter. The filtered solutions were diluted to prepare test solutions containing 6µg piceatannol-3'-o-β-d-glucopyranoside per milliliter. Appropriate amount of control sample was precisely weighed out, dissolved in water and diluted to prepare a control solution. The absorbance values of both types of solutions were measured at 319 nm using UV spectrophotometry, from which the solubility can be calculated. The test results of solubility can be seen in the tables below: […]

mice = assay: acute and long-term toxicity tests in mice; assay type: in vivo; details: administrated in a range of safe dose
mouse = assay: acute toxicity test, gastric gavage, mouse; details: within 24 h
beagle dog = assay: acute toxicity test, gastric gavage, beagle dog; details: within 24 h

| SMILES | maximum tolerated dose for human (human) | Solubility of piceatannol-3'-o-β-d-glucopyranoside ([1]; Gastrodin 45 % + Hydroxypropyl-β-cyclodextrin 3 %) | Solubility of piceatannol-3'-o-β-d-glucopyranoside ([1]; Gastrodin 50 % + Hydroxypropyl-β-cyclodextrin 3 %) | Solubility of piceatannol-3'-o-β-d-glucopyranoside ([1]; Hydroxypropyl-β-cyclodextrin 45 %) | Solubility of piceatannol-3'-o-β-d-glucopyranoside ([1]; Hydroxypropyl-β-cyclodextrin 50 %) | chromosome aberration or mutagenesis (genotoxicity test) | toxic effect (mice) | single maximum dosage given by gastric gavage (mouse) | single maximum dosage given by gastric gavage (beagle dog) |
| --- | --- | --- | --- | --- | --- | --- | --- | --- | --- |
| OCc1ccc(O[C@@H]2O[C@H](CO)[C@@H](O)[C@H](O)[C@H]2O)cc1 [Gastrodin, 4-hydroxymethylphenyl-β-D-glucopyranoside hemihydrate] | 33.249 g |  |  |  |  |  |  |  |  |
| OC[C@H]1O[C@@H](Oc2cc(/C=C/c3cc(O)cc(O)c3)ccc2O)[C@H](O)[C@@H](O)[C@@H]1O [piceatannol-3'-o-β-d-glucopyranoside] |  | 186.789 mg/mL | 188.029 mg/mL | 180.509 mg/mL | 183.10 mg/mL | no chromosome aberration or mutagenesis observed | no toxic effect observed | 13.33 g/kg.bw | 5 g/kg.bw |

From EP2862575B1, “APPLICATION OF PICEATANNOL-3'-O-B-D-GLUCOPYRANOSIDE IN PREPARATION OF MEDICAMENTS FOR IMPROVING MICROCIRCULATION BLOCK” (KPC Pharmaceuticals, Inc., priority 2012, dated 2013)
